One test addresses human CB2 receptor (Homo sapiens (Human), UniProt P34972). As to the kind of experiment: cAMP assay, CHO cells expressing human CB2 receptors. It counts as cell-based. The conditions noted are these: functional cAMP assay, read-out: CB2 hcAMP EC50. Here is the method:
(§1) CHO cells expressing human CB1 or CB2 receptors are seeded 17-24 hours prior to the experiment 50.000 cells per well in a black 96 well plate with flat clear bottom (Corning Costar #3904) in DMEM (Invitrogen No. 31331), 1×HT supplement, with 10% fetal calf serum and incubated at 5% CO2 and 37° C. in a humidified incubator. The growth medium was exchanged with Krebs Ringer Bicarbonate buffer with 1 mM IBMX and incubated at 30° C. for 30 min. Compounds were added to a final assay volume of 100 μl and incubated for 30 min at 30° C. Using the cAMP-Nano-TRF detection kit the assay (Roche Diagnostics) was stopped by the addition of 50 μl lysis reagent (Tris, NaCl, 1.5% Triton X100, 2.5% NP40, 10% NaN3) and 50 μl detection solutions (20 μM mAb Alexa700-cAMP 1:1, and 48 μM Ruthenium-2-AHA-cAMP) and shaken for 2 h at room temperature. The time-resolved energy transfer is measured by a TRF reader (Evotec Technologies GmbH), equipped with a ND:YAG laser as excitation source. The plate is measured twice with the excitation at 355 nm and at the emission with a delay of 100 ns and a gate of 100 ns, total exposure time 10 s at 730 (bandwidth 30 nm) or 645 nm (bandwidth 75 nm), respectively. The FRET signal is calculated as follows: FRET=T730-Alexa730-P(T645-B645) with P=Ru730-B730/Ru645-B645, where T730 is the test well measured at 730 nM, T645 is the test well measured at 645 nm, B730 and B645 are the buffer controls at 730 nm and 645 nm, respectively. cAMP content is determined from the function of a standard curve spanning from 10 μM to 0.13 nM cAMP.
(§2) EC50 values were determined using Activity Base analysis (ID Business Solution, Limited). The EC50 values for a wide range of cannabinoid agonists generated from this assay were in agreement with the values published in the scientific literature.
In general terms: Cyclic AMP is a second messenger, typically raised through Gs and lowered through Gi signalling.

In a further test the target is human CB1 receptor (Homo sapiens (Human), UniProt P21554). As to the kind of experiment: cAMP assay, CHO cells expressing human CB1 receptors. The conditions noted are these: functional cAMP assay, read-out: CB1 hcAMP EC50. It counts as cell-based. Here is the method: as §1, §2

Where only a bound is given, the exact number is not on record here.

Sequence of human CB1 receptor (P21554 whole entry): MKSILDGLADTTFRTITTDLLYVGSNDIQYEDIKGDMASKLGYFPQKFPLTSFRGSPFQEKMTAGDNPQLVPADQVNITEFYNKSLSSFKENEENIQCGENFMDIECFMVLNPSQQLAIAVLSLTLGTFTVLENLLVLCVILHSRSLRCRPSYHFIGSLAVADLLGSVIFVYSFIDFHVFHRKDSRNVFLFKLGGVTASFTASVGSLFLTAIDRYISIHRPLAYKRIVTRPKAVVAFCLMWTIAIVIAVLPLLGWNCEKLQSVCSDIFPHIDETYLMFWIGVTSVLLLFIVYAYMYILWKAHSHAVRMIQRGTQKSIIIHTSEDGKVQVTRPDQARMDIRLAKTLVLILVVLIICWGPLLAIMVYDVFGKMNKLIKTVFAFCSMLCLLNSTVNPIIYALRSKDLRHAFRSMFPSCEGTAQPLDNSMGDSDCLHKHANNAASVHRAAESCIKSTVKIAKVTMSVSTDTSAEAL
Sequence of human CB2 receptor (P34972 whole entry): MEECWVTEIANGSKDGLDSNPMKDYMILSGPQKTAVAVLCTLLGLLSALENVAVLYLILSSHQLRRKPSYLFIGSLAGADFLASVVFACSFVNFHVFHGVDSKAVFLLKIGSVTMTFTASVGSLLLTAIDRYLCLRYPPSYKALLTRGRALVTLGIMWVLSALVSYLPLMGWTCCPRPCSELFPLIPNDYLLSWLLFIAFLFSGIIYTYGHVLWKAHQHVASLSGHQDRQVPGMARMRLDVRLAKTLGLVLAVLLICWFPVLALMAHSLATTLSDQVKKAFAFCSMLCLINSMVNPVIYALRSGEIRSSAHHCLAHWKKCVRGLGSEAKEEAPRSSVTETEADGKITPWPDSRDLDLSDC

As for `CC(O)CS(=O)(=O)c1nc(N2CCC(F)(F)C2)c2nnn(Cc3ccccc3Cl)c2n1` (centres unmarked) [Example 95, 1-[3-[(2-Chlorophenyl)methyl]-7-(3,3-difluoropyrrolidin-1-yl)triazolo[4,5-d]pyrimidin-5-yl]sulfonylpropan-2-ol], the EC50 (commonly the midpoint of the concentration-response curve) on human CB2 receptor is 64.4 nM; on human CB1 receptor it was above 10000 nM.
For `CC1(Nc2nc(N3CCC(F)(F)C3)c3nnn(Cc4ccccc4Cl)c3n2)COC1` [Example 13, 3-[(2-Chlorophenyl)methyl]-7-(3,3-difluoropyrrolidin-1-yl)-N-(3-methyloxetan-3-yl)triazolo[4,5-d]pyrimidin-5-amine], in that order: 12.5 nM and above 10000 nM.
`C=C(C)c1nc(N2CC[C@H](O)C2)c2nnn(Cc3ccccc3Cl)c2n1` [Example 6, (3S)-1-[3-[(2-Chlorophenyl)methyl]-5-prop-1-en-2-yltriazolo[4,5-d]pyrimidin-7-yl]pyrrolidin-3-ol]: the EC50 at human CB2 receptor is 3.6 nM; at human CB1 receptor, above 10000 nM.
In the same order, the values of `C[C@H](Oc1nc(N2CCC(F)(F)C2)c2nnn(Cc3ncccc3Cl)c2n1)C(F)(F)F` [Example 70, 3-[(3-Chloropyridin-2-yl)methyl]-7-(3,3-difluoropyrrolidin-1-yl)-5-[(2S)-1,1,1-trifluoropropan-2-yl]oxytriazolo[4,5-d]pyrimidine] are 5.1 nM and above 10000 nM.
`Cc1noc(Cn2nnc3c(N4CC[C@@](C)(O)C4)nc(N4CCOCC4)nc32)n1` [Example 39, (3R)-3-Methyl-1-[3-[(3-methyl-1,2,4-oxadiazol-5-yl)methyl]-5-morpholin-4-yltriazolo[4,5-d]pyrimidin-7-yl]pyrrolidin-3-ol]: the values for the EC50 at human CB2 receptor and at human CB1 receptor were 301 nM and above 10000 nM, respectively.
Consider `FC1(F)CCN(c2nc(NC3COC3)nc3c2nnn3Cc2ccccc2Cl)C1` [Example 17, 3-[(2-Chlorophenyl)methyl]-7-(3,3-difluoropyrrolidin-1-yl)-N-(oxetan-3-yl)triazolo [4,5-d]pyrimidin-5-amine], for which the EC50 was 26.6 nM at human CB2 receptor and above 10000 nM on human CB1 receptor.
For `COc1ccc(Cn2nnc3c(N4CC[C@](C)(O)C4)nc(NC(C)(C)C)nc32)cc1` [Example 30, (3S)-1-[5-(tert-Butylamino)-3-[(4-methoxyphenyl)methyl]triazolo[4,5-d]pyrimidin-7-yl]-3-methylpyrrolidin-3-ol], in that order: 89.9 nM and above 10000 nM.
In the same order, the values of `FC1(F)CCN(c2nc(OC3COC3)nc3c2nnn3Cc2ccccc2Cl)C1` [Example 49, 3-[(2-Chlorophenyl)methyl]-7-(3,3-difluoropyrrolidin-1-yl)-5-(oxetan-3-yloxy)triazolo [4,5-d]pyrimidine] are 21.9 nM and above 10000 nM.
For `COc1ccc(Cn2nnc3c(N4CC[C@@](C)(O)C4)nc(NC(C)(C)C)nc32)cc1` [Example 31, (3R)-1-[5-(tert-Butylamino)-3-[(4-methoxyphenyl)methyl]triazolo[4,5-d]pyrimidin-7-yl]-3-methylpyrrolidin-3-ol], the EC50 at human CB2 receptor was 56 nM; on human CB1 receptor, above 10000 nM.
For the molecule `C[C@]1(O)CCN(c2nc(N3CCOCC3)nc3c2nnn3Cc2ccccc2Cl)C1` [Example 32, (3S)-1-[3-[(2-Chlorophenyl)methyl]-5-morpholino-triazolo[4,5-d]pyrimidin-7-yl]-3-methyl-pyrrolidin-3-ol], the EC50 on human CB2 receptor is 9.6 nM; at human CB1 receptor it was above 10000 nM.
As to `CC(Oc1nc(N2CCC(F)(F)C2)c2nnn(Cc3ccccc3Cl)c2n1)C(F)(F)F` (centres unmarked) [Example 41, 3-[(2-Chlorophenyl)methyl]-7-(3,3-difluoropyrrolidin-1-yl)-5-(1,1,1-trifluoropropan-2-yloxy)triazolo[4,5-d]pyrimidine], the EC50 was 8.5 nM at human CB2 receptor and above 10000 nM on human CB1 receptor.
In the same order, the values of `CC(C)Oc1nc(N2CCC(F)(F)C2)c2nnn(Cc3ccccc3Cl)c2n1` [Example 55, 3-[(2-Chlorophenyl)methyl]-7-(3,3-difluoropyrrolidin-1-yl)-5-propan-2-yloxytriazolo [4,5-d]pyrimidine] are 1.2 nM and above 10000 nM.
In the same order, the values of `Cc1nonc1Cn1nnc2c(N3CCC(F)(F)C3)nc(O[C@@H](C)C(F)(F)F)nc21` [Example 74, 3-[[7-(3,3-Difluoropyrrolidin-1-yl)-5-[(2S)-1,1,1-trifluoropropan-2-yl]oxytriazolo[4,5-d]pyrimidin-3-yl]methyl]-4-methyl-1,2,5-oxadiazole] are 1.8 nM and above 10000 nM.
For the molecule `OCCSc1nc(N2CCC(F)(F)C2)c2nnn(Cc3ccccc3Cl)c2n1` [Example 89, 2-[3-[(2-Chlorophenyl)methyl]-7-(3,3-difluoropyrrolidin-1-yl)triazolo[4,5-d]pyrimidin-5-yl]sulfanylethanol], the EC50 on human CB2 receptor was 7.4 nM; at human CB1 receptor it was above 10000 nM.
Take `CC(C)(C)COc1nc(N2CCC(F)(F)C2)c2nnn(Cc3ccccc3S(C)(=O)=O)c2n1` [Example 66, 7-(3,3-Difluoropyrrolidin-1-yl)-5-(2,2-dimethylpropoxy)-3-[(2-methylsulfonylphenyl)methyl]triazolo[4,5-d]pyrimidine]: the EC50 on human CB2 receptor is 3.9 nM; on human CB1 receptor, above 10000 nM.
As to `CCCCOc1nc(N2CCC(F)(F)C2)c2nnn(Cc3ccccc3Cl)c2n1` [Example 45, 5-Butoxy-3-[(2-chlorophenyl)methyl]-7-(3,3-difluoropyrrolidin-1-yl)triazolo[4,5-d]pyrimidine], the EC50 at human CB2 receptor was 1.2 nM; on human CB1 receptor, above 10000 nM.
In the case of `CC(C)Oc1nc(N2CC[C@H](O)C2)c2nnn(Cc3ccccc3Cl)c2n1` [Example 62, (3S)-1-[3-[(2-Chlorophenyl)methyl]-5-propan-2-yloxytriazolo[4,5-d]pyrimidin-7-yl]pyrrolidin-3-ol], the EC50 at human CB2 receptor was 14.8 nM; at human CB1 receptor, above 10000 nM.
With `CCCCS(=O)(=O)c1nc(N2CCC(F)(F)C2)c2nnn(Cc3ccccc3Cl)c2n1` [Example 93, 5-Butylsulfonyl-3-[(2-chlorophenyl)methyl]-7-(3,3-difluoropyrrolidin-1-yl)triazolo [4,5-d]pyrimidine], the results for the EC50 at human CB2 receptor and on human CB1 receptor were 8.8 nM and above 10000 nM, respectively.
For `CC(C)S(=O)(=O)c1nc(N2CCC(F)(F)C2)c2nnn(Cc3ccccc3Cl)c2n1` [Example 88, 3-[(2-Chlorophenyl)methyl]-7-(3,3-difluoropyrrolidin-1-yl)-5-propan-2-ylsulfonyltriazolo[4,5-d]pyrimidine], in that order: 1.7 nM and above 10000 nM.
For `FCCOc1nc(N2CCC(F)(F)C2)c2nnn(Cc3ccccc3Cl)c2n1` [Example 46, 3-[(2-Chlorophenyl)methyl]-7-(3,3-difluoropyrrolidin-1-yl)-5-(2-fluoroethoxy) triazolo[4,5-d]pyrimidine], the EC50 on human CB2 receptor was 5.3 nM; on human CB1 receptor, above 10000 nM.
In the same order, the values of `CC(=O)N[C@H]1CCN(c2nc(OCC(C)(C)C)nc3c2nnn3Cc2nonc2C)C1` [Example 79, N-[(3S)-1-[5-(2,2-Dimethylpropoxy)-3-[(4-methyl-1,2,5-oxadiazol-3-yl)methyl]triazolo [4,5-d]pyrimidin-7-yl]pyrrolidin-3-yl]acetamide] are 72.7 nM and above 10000 nM.
Take `CC(C)(C)Nc1nc(N2CCC(F)(F)C2)c2nnn(Cc3ncccc3Cl)c2n1` [Example 24, N-tert-Butyl-3-[(3-chloropyridin-2-yl)methyl]-7-(3,3-difluoropyrrolidin-1-yl)triazolo [4,5-d]pyrimidin-5-amine]: the EC50 on human CB2 receptor is 3.4 nM; at human CB1 receptor it was above 10000 nM.
For `CCSc1nc(N2CCC(F)(F)C2)c2nnn(Cc3ccccc3Cl)c2n1` [Example 82, 3-[(2-Chlorophenyl)methyl]-7-(3,3-difluoropyrrolidin-1-yl)-5-ethylsulfanyltriazolo [4,5-d]pyrimidine], the results for the EC50 on human CB2 receptor and on human CB1 receptor were 0.7 nM and 183 nM, respectively.
For `COCCS(=O)(=O)c1nc(N2CCC(F)(F)C2)c2nnn(Cc3ccccc3Cl)c2n1` [Example 96, 3-[(2-Chlorophenyl)methyl]-7-(3,3-difluoropyrrolidin-1-yl)-5-(2-methoxyethylsulfonyl)triazolo[4,5-d]pyrimidine], in that order: 5.1 nM and above 10000 nM.
Turning to `COc1ccc(Cn2nnc3c(N4CCC(F)(F)C4)nc(C4CC4)nc32)cc1` [Example 2, 5-Cyclopropyl-7-(3,3-difluoropyrrolidin-1-yl)-3-[(4-methoxyphenyl)methyl]triazolo [4,5-d]pyrimidine], the figures for the EC50 at human CB2 receptor and on human CB1 receptor were 6.4 nM and above 10000 nM, respectively.

The values are drawn from patent US9593123B2, “Triazolo[4,5-D]pyrimidine derivatives” (Hoffmann-La Roche Inc., priority 2013, dated 2017).
